# Laboratory results taken from patent US11285156B2, “Substituted piperazines as KRAS G12C inhibitors” (Amgen Inc., priority 2018, dated 2022).
# Read-outs that look alike come from different tables or passages of the source.
# How the values were obtained:
# [1] = test system: Phosphorylation of ERK1/2 in MIA PaCa-2 cells; assay: Phospho-ERK1/2 MSD assay in MIA PaCa-2 cells; assay type: cell-based; conditions: read-out: p-ERK IC50 (2 h, MiaPaCa-2; μM), 2 h compound treatment, MIA PaCa-2 cells, EGF stimulated
# Protocol: (§1) Phospho-ERK1/2 MSD Assay:
# (§2) Sixteen hours prior to compound treatment, MIA PaCa-2 or A549 cells were seeded in 96-well cell culture plates at a density of 25,000 cells/well and incubated at 37° C., 5% CO2. A compound dose-response titration was diluted in growth media, added to appropriate wells of a cell culture plate, and then incubated at 37° C., 5% CO2 for 2 or 4 hours (see Table 15). Following compound treatment, cells were stimulated with 10 ng/mL EGF (Roche 11376454001) for 10 min, washed with ice-cold Dulbecco's phosphate-buffered saline, no Ca2+ or Mg2+ (ThermoFisher Scientific 14190144), and then lysed in RIPA buffer (50 mM Tris-HCl pH 7.5, 1% Igepal, 0.5% sodium deoxycholate, 150 mM NaCl. and 0.5% sodium dodecyl sulfate) containing protease inhibitors (Roche 4693132001) and phosphatase inhibitors (Roche 4906837001). Phosphorylation of ERK1/2 in compound-treated lysates was assayed using Phospho-ERK1/2 Whole Cell Lysate kits (Meso Scale Discovery K151DWD) according to the manufacturer's protocol.
# [2] = test system: Phosphorylation of ERK1/2 in A549 cells; assay: Phospho-ERK1/2 MSD assay in A549 cells; assay type: cell-based; conditions: read-out: p-ERK IC50 (2 h, A549; μM), 2 h compound treatment, A549 cells, EGF stimulated
# Protocol: as §1
# as §2, with “MIA PaCa-2 (ATCC® CRL-1420™) and A549 (ATCC® CCL-185™) cells were cultured in RPMI 1640 Medium (ThermoFisher Scientific 11875093) containing 10% fetal bovine serum (ThermoFisher Scientific 16000044) and 1× penicillin-streptomycin-glutamine (ThermoFisher Scientific 10378016). Sixteen” for “Sixteen”
Structure (SMILES),"IC50 ([1]; Homo sapiens, MIA PaCa-2, 2 h)","IC50 ([2]; Homo sapiens, A549, 2 h)",IC50 [1],IC50 [2]
"C=CC(=O)N1C[C@H](C)N(c2nc(=O)n(-c3c(C)ccnc3C(C)C)c3nc(-c4c(F)cccc4S(C)(=O)=O)c(Cl)cc23)C[C@H]1C (atropisomer, axis not shown; (M)) [Example 214, (M)-4-((2S,5R)-4-Acryloyl-2,5-dimethylpiperazin-1-yl)-6-chloro-7-(2-fluoro-6-(methylsulfonyl)phenyl)-1-(2-isopropyl-4-methylpyridin-3-yl)pyrido[2,3-d]pyrimidin-2(1H)-one]",,,0.025 µM,> 7.5 µM
"C=CC(=O)N1C[C@H](C)N(c2nc(=O)n(-c3c(C)ccnc3C(C)C)c3nc(-c4c(F)cccc4S(C)(=O)=O)c(Cl)cc23)C[C@H]1C (atropisomer, axis not shown; (M)) [Example 214-1, (M)-4-((2S,5R)-4-Acryloyl-2,5-dimethylpiperazin-1-yl)-6-chloro-7-(2-fluoro-6-(methylsulfonyl)phenyl)-1-(2-isopropyl-4-methylpyridin-3-yl)pyrido[2,3-d]pyrimidin-2(1H)-one]",0.03 µM,> 7.5 µM,,
"C=CC(=O)N1C[C@H](C)N(c2nc(=O)n(-c3c(C)cncc3C(C)C)c3nc(-c4ccccc4F)c(Cl)cc23)C[C@H]1C (single isomer, unassigned) [Example 100-8]",0.042 µM,> 7.5 µM,,
"C=CC(=O)N1C[C@H](C)N(c2nc(=O)n(-c3c(C(C)C)ccnc3C(C)C)c3nc(-c4ccccc4Cl)c(Cl)cc23)C[C@H]1C (single isomer, unassigned) [Example 124-6]",0.062 µM,> 7.5 µM,,
"C=CC(=O)N1C[C@H](C)N(c2nc(=O)n(-c3c(C(C)C)ccnc3C(C)C)c3nc(-c4ccccc4C)c(Cl)cc23)C[C@H]1C (single isomer, unassigned) [Example 125-2]",,,0.038 µM,> 7.5 µM
"C=CC(=O)N1C[C@H](C)N(c2nc(=O)n(-c3c(C(C)C)ccnc3C(C)C)c3nc(-c4ccccc4C(F)(F)F)c(Cl)cc23)C[C@H]1C (single isomer, unassigned) [Example 125-3]",,,0.041 µM,> 7.5 µM
"C=CC(=O)N1C[C@H](C)N(c2nc(=O)n(-c3c(C(C)C)ccnc3C(C)C)c3nc(-c4c(O)cccc4F)c(Cl)cc23)C[C@H]1C (single isomer, unassigned) [Example 125-4]",,,0.023 µM,> 7.5 µM
"C=CC(=O)N1C[C@H](C)N(c2nc(=O)n(-c3c(C(C)C)ccnc3C(C)C)c3nc(-c4ccccc4Cl)c(Cl)cc23)C[C@H]1C (single isomer, unassigned) [Example 125-6]",,,0.105 µM,> 7.5 µM
"C=CC(=O)N1C[C@H](C)N(c2nc(=O)n(-c3c(C(C)C)ccnc3C(C)C)c3nc(-c4ccccc4)c(Cl)cc23)C[C@H]1C (single isomer, unassigned) [Example 125-7]",,,0.137 µM,> 7.5 µM
"C=CC(=O)N1C[C@H](C)N(c2nc(=O)n(-c3c(C)cc(C(=C)C)nc3C(C)C)c3nc(-c4ccccc4F)c(Cl)cc23)C[C@H]1C (single isomer, unassigned) [Example 173-1]",0.229 µM,5.97 µM,,
"C=CC(=O)N1C[C@H](C)N(c2nc(=O)n(-c3c(C)cc(N4CCC4)nc3C(C)C)c3nc(-c4ccccc4F)c(Cl)cc23)C[C@H]1C (single isomer, unassigned) [Example 175-2]",0.171 µM,> 7.5 µM,,
"C=CC(=O)N1C[C@H](C)N(c2nc(=O)n(-c3c(C)cc(C(C)C)nc3C(C)C)c3nc(-c4ccccc4F)c(Cl)cc23)C[C@H]1C (single isomer, unassigned) [Example 176-1]",0.347 µM,5.75 µM,,
"C=CC(=O)N1C[C@H](C)N(c2nc(=O)n(-c3c(C)cc(C=C)nc3C(C)C)c3nc(-c4ccccc4F)c(Cl)cc23)C[C@H]1C (single isomer, unassigned) [Example 177-1]",0.063 µM,3.34 µM,,
"C=CC(=O)N1[C@H](C)CN(c2nc(=O)n(-c3c(C(C)C)cnnc3C(C)C)c3nc(-c4ccccc4F)c(Cl)cc23)C[C@@H]1C (single isomer, unassigned) [Example 206-1, 4-(cis-4-Acryloyl-3,5-dimethylpiperazin-1-yl)-6-chloro-1-(3,5-diisopropylpyridazin-4-yl)-7-(2-fluorophenyl)pyrido[2,3-d]pyrimidin-2(1H)-one]",0.1 µM,> 7.5 µM,,
"C=CC(=O)N1C[C@H](C)N(c2nc(=O)n(-c3c(N(C)C)ccnc3C(C)C)c3nc(-c4c(N)cccc4F)c(Cl)cc23)C[C@H]1C [Example 55-56, 7-(2-Amino-6-fluoro-phenyl)-6-chloro-1-[4-(dimethylamino)-2-isopropyl-3-pyridyl]-4-[(2S,5R)-2,5-dimethyl-4-prop-2-enoyl-piperazin-1-yl]pyrido[2,3-d]pyrimidin-2-one]",,,0.01 µM,> 7.5 µM
"C=CC(=O)N1C[C@H](C)N(c2nc(=O)n(-c3c(N(C)C)ccnc3C(C)C)c3nc(-c4c(N)cccc4F)c(Cl)cc23)C[C@H]1C [Example 55-57, 7-(2-Amino-6-fluoro-phenyl)-6-chloro-1-[4-(dimethylamino)-2-isopropyl-3-pyridyl]-4-[(2S,5R)-2,5-dimethyl-4-prop-2-enoyl-piperazin-1-yl]pyrido[2,3-d]pyrimidin-2-one]",,,0.177 µM,> 7.5 µM
"C=CC(=O)N1C[C@H](C)N(c2nc(=O)n(-c3c(CC)ccnc3C(C)C)c3nc(-c4ccccc4F)c(Cl)cc23)C[C@H]1C [Example 55-58, 6-Chloro-4-[(2S,5R)-2,5-dimethyl-4-prop-2-enoyl-piperazin-1-yl]-l-(4-ethyl-2-isopropyl-3-pyridyl)-7-(2-fluorophenyl)pyrido[2,3-d]pyrimidin-2-one]",0.056 µM,> 7.5 µM,,
"C=CC(=O)N1C[C@H](C)N(c2nc(=O)n(-c3c(C(C)C)cccc3C(C)C)c3nc(-c4ccccc4F)c(Cl)cc23)C[C@H]1C [Example 102-1, 4-((2S,5R)-4-Acryloyl-2,5-dimethylpiperazin-1-yl)-6-chloro-1-(2,6-diisopropylphenyl)-7-(2-fluorophenyl)pyrido[2,3-d]pyrimidin-2(1H)-one]",0.395 µM,5.25 µM,,
"C=CC(=O)N1C[C@H](C)N(c2nc(=O)n(-c3c(C(C)C)ccnc3C(C)C)c3nc(-c4ccccc4F)c(Cl)cc23)C[C@H]1C [Example 102-3, 6-Chloro-1-(2,4-diisopropyl-3-pyridyl)-4-[(2S,5R)-2,5-dimethyl-4-prop-2-enoyl-piperazin-1-yl]-7-(2-fluorophenyl) pyrido[2,3-d]pyrimidin-2-one]",,> 7.5 µM,0.032 µM,

# Further lines, with some results ahead:
"IC50 ([1]; Homo sapiens, MIA PaCa-2, 2 h)","IC50 ([2]; Homo sapiens, A549, 2 h)",Structure (SMILES),IC50 [1],IC50 [2]
0.659 µM,> 7.5 µM,"C=CC(=O)N1C[C@H](C)N(c2nc(=O)n(-c3c(C)ccnc3C(C)C)c3nc(-c4cc(S(C)(=O)=O)ccc4F)c(Cl)cc23)C[C@H]1C (atropisomer, axis not shown; (M)) [Example 223, (M)-4-((2S,5R)-4-Acryloyl-2,5-dimethylpiperazin-1-yl)-6-chloro-7-(2-fluoro-5-(methylsulfonyl)phenyl)-1-(2-isopropyl-4-methylpyridin-3-yl)pyrido[2,3-d]pyrimidin-2(1H)-one]",,
0.049 µM,> 7.5 µM,"C=CC(=O)N1C[C@H](C)N(c2nc(=O)n(-c3c(C)cc(C)nc3C(C)C)c3nc(-c4ccccc4F)c(Cl)cc23)C[C@H]1C (single isomer, unassigned) [Example 165-1]",,
0.023 µM,> 7.5 µM,"C=CC(=O)N1C[C@H](C)N(c2nc(=O)n(-c3c(Cl)ccnc3C(C)C)c3nc(-c4ccccc4F)c(Cl)cc23)C[C@H]1C [Example 55-50, 6-Chloro-1-(4-chloro-2-isopropyl-3-pyridyl)-4-[(2S,5R)-2,5-dimethyl-4-prop-2-enoyl-piperazin-1-yl]-7-(2-fluorophenyl)pyrido[2,3-d]pyrimidin-2-one]",,
,> 7.5 µM,"C=CC(=O)N1C[C@H](C)N(c2nc(=O)n(-c3c(N(C)C)ccnc3C(C)C)c3nc(-c4c(N)cccc4F)c(Cl)cc23)C[C@H]1C [Example 55-54, 7-(2-Amino-6-fluoro-phenyl)-6-chloro-1-[4-(dimethylamino)-2-isopropyl-3-pyridyl]-4-[(2S,5R)-2,5-dimethyl-4-prop-2-enoyl-piperazin-1-yl]pyrido[2,3-d]pyrimidin-2-one]",0.016 µM,
